Structures are written as SMILES.

The values below come from BindingDB's records for patent US20250257059 (Nerio Therapeutics, 2025).

The target in the test is T1, Tyrosine-protein phosphatase non-receptor type 2 (Homo sapiens, UniProt P17706).
T1 sequence (P17706 whole entry): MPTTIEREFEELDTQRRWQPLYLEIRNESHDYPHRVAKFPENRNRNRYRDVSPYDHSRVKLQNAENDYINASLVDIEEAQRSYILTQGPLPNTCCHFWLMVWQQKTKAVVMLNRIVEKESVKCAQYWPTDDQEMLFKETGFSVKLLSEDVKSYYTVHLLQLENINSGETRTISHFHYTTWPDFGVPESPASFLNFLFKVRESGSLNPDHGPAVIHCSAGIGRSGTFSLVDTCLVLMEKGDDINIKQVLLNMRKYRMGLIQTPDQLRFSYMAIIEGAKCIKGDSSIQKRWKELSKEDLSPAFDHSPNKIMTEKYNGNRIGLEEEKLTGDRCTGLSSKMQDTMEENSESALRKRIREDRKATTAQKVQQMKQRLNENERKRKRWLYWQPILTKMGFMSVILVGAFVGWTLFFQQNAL
Put plainly: In vitro enzymatic assay. The procedure: PTPN2 was produced in E. coli as a GST-TEV fusion and the GST was removed by TEV digestion, followed by additional purification to yield full-length PTPN2 (SEQ ID 1). PTPN2 enzyme was diluted in assay buffer (50 mM HEPES pH7.5, 0.2 mM EDTA, 1 mM DTT, 0.02% Brij-35, 0.02% BSA) to a final concentration of 0.5 nM and added to black 384-well non-binding plates (Greiner, 781900). Compounds were subsequently added using a Tecan D300e dispenser. Following a 10 min incubation at room temperature, DiFMUP substrate (ThermoFisher, D22065) was added to a final concentration of 100 μM. Plates were transferred to a SpectraMax plate reader (Molecular Devices) and fluorescence intensity was measured (ex 358, em 455) after a 30 min incubation at room temperature. […] A four-parameter curve fit was used to determine IC50 values from % inhibition data.
For orientation: IC50 means the concentration that gives 50% inhibition. Higher therefore signals weaker potency. `O=C1CN(c2c(O)cc(CC3CCN(Cc4ccco4)C3)cc2F)S(=O)(=O)N1` (centres undefined) [US20250257059, Example 7] returned an IC50 of 7 nM. This counts as single-digit nanomolar.

`O=C1CN(c2c(O)cc(CC3CCCCNC3)cc2F)S(=O)(=O)N1` (centres undefined) [US20250257059, Example 55]: the IC50 came out at 16 nM.

The molecule `CC(C)CCCN1CCCCC1Cc1ccc(O)c(N2CC(=O)NS2(=O)=O)c1F` (centres undefined) [US20250257059, Example 79] gave an IC50 of 7 nM.

The molecule `O=C1CN(c2c(O)ccc(CC3CCCCN3CCC3CCCC3)c2F)S(=O)(=O)N1` (centres undefined) [US20250257059, Example 80] gave an IC50 of 5 nM. The IC50 values of the last two molecules are within 1.5-fold of each other.

`O=C1CN(c2c(O)cc(CCN3CCOCC3)cc2F)S(=O)(=O)N1` [US20250257059, Example 89] showed an IC50 of 7 nM.

In turn, `O=C1CN(c2c(O)cc(CCN3CCCC(F)C3)cc2F)S(=O)(=O)N1` (centres undefined) [US20250257059, Example 97] returned an IC50 of 3 nM. Compared with the last molecule, the IC50 is about 2.3-fold lower.

For the molecule `COC1CCN(CCc2cc(O)c(N3CC(=O)NS3(=O)=O)c(F)c2)CC1` [US20250257059, Example 104], the IC50 stood at 3 nM. That is a single-digit nanomolar value.

`CC(C)(C)C1CCN(CCc2cc(O)c(N3CC(=O)NS3(=O)=O)c(F)c2)C1` (centres undefined) [US20250257059, Example 111] showed an IC50 of 2 nM. This IC50 is about 1.5-fold lower than that of the molecule before.

Molecule `O=C1CN(c2c(O)cc(CCN3CCC4(CCCC4)C3)cc2F)S(=O)(=O)N1` [US20250257059, Example 112] had an IC50 of 2 nM.

`O=C1CN(c2c(O)cc(CCN3CCC4(CCOCC4)C3)cc2F)S(=O)(=O)N1` [US20250257059, Example 113] had an IC50 of 2 nM.

For the molecule `COC[C@@H]1CCN(CCc2cc(O)c(N3CC(=O)NS3(=O)=O)c(F)c2)C1` [US20250257059, Example 117], 1 nM corresponded to half-maximal inhibition (IC50).

Molecule `O=C1CN(c2c(O)cc(CCN3CC[C@@H](C(F)(F)F)C3)cc2F)S(=O)(=O)N1` [US20250257059, Example 122] registered an IC50 of 3 nM.

On to `CC1(C)CN(CCc2cc(O)c(N3CC(=O)NS3(=O)=O)c(F)c2)C1` [US20250257059, Example 127], for which the IC50 was 2 nM.

Take `O=C1CN(c2c(O)cc(CCN3Cc4ccccc4C3)cc2F)S(=O)(=O)N1` [US20250257059, Example 128]: 2 nM corresponded to half-maximal inhibition (IC50).

The molecule `CC(C)[C@@H]1CCN(CCc2cc(O)c(N3CC(=O)NS3(=O)=O)c(F)c2)C1` [US20250257059, Example 134] registered an IC50 of 1 nM.

`CC(C)[C@H]1CCN(CCc2cc(O)c(N3CC(=O)NS3(=O)=O)c(F)c2)C1` [US20250257059, Example 135] came in with an IC50 of 2 nM.

On to `O=C1CN(c2c(O)cc(CCN3CC(F)C3)cc2F)S(=O)(=O)N1` [US20250257059, Example 136], for which the IC50 turned out to be 3 nM. Compared with the last molecule, the IC50 is about 1.5-fold higher.

Turning to `O=C1CN(c2c(O)cc(CCN3CC(C(F)(F)F)C3)cc2F)S(=O)(=O)N1` [US20250257059, Example 137], the IC50 came out at 5 nM.

With `CC1CN(CCc2cc(O)c(N3CC(=O)NS3(=O)=O)c(F)c2)C1` [US20250257059, Example 140], half-maximal inhibition (IC50) required 2 nM. Against the preceding molecule, the IC50 is about 2.5-fold lower.
